Results from publication PMC4861708 (Frontiers in Cell and Developmental Biology, 2016).
In brackets after ≈: the same amount, converted by molar mass. Where a SMILES comes first, the peptide text is derived from it. [ ]: non-standard residue; d: D form. The star is where a group is joined. Orn(α-tetramethylguanidino) = CN(C)C(=N[C@@H](CCCN)C(=O)*)N(C)C; Orn = NCCC[C@H](N)C(=O)O

Columns and labels:
[1] = tested on: E. coli DSM 1103 (ATCC 25922); assay type: cell-based, Escherichia coli; conditions: DSM 1103, 24 h
Procedure: (§1) MICs of P. aeruginosa strains DSM 1117 (ATCC 27853), DSM 3227 (ATCC 19429), and DSM 9644 were determined in a microdilution broth assay using 50 or 100% MHB (11.5 and 23 g/L MHB, respectively) whereas MICs of E. coli DSM 1103 (ATCC 25922) and K. pneumoniae DSM 681 (ATCC 10031) were determined in TSB (30 g/L TSB). Peptides (1 g/L in water) were serially two-fold diluted in a 96-well microtiter plate (PS, sterile, flat bottom) in 50 μL of the corresponding medium to final concentrations of 512–4 μg/mL. Bacteria were grown in nutrient broth overnight and diluted to a cell concentration of 1.5 × 10^7 cells/mL in the corresponding medium. Cell densities were determined by using the McFarland standard as reference. An aliquot (50 μL) of the cell culture was added to each well and incubated (37°C, 24 h). The OD595 was determined in a SpectraMax 340PC (Molecular Devices, Sunnyvale, USA). Additionally, MIC values were also determined for high bacteria densities (5 × 10^8 cells/mL) corresponding to the conditions used for TEM, as described above.

[2] = tested on: K. pneumoniae DSM 681 (ATCC 10031); assay type: cell-based, Klebsiella pneumoniae; conditions: DSM 681, 24 h
Procedure: as §1

[3] = tested on: P. aeruginosa DSM 1117 (ATCC 27853); set-up: method as in Bluhm et al., 2015; conditions: 50% MHB; ref Bluhm et al., 2015; cited from earlier work
[4] = tested on: Primary rat cardiomyocytes; assay: in vitro; assay type: cell-based; conditions: 24 h
Procedure: (§2) Human embryonic kidney (HEK293) and HeLa cells were cultured in Dulbecco's modified Eagle's/Ham's F-12 medium [DMEM/F-12 (1:1)] supplemented with FBS (10% v/v), penicillin, and streptomycin (1000 units each). Primary rat cardiomyocytes (Innoprot, Elexalde Derio, Spain) were grown in medium supplemented with FBS (20% v/v), horse serum (5% v/v), L-glutamine (2 mmol/L), sodium pyruvate (2 mmol/L), MEM non-essential amino acids (Gibco, 0.1 mmol/L), penicillin, and streptomycin (1000 units each). Surfaces for cardiomyocyte growth were coated with attachment factor first. Cells (20,000/well) were seeded into a 96-well plate (PS, sterile, flat bottom), incubated for 24 h (37°C, 5% CO2), and washed twice with PBS (100 μl/well) prior to adding colorless medium (88 μL) and peptide solution (12 μL; 5, 2.5, 1.25, […], and 0.625 g/L in PBS). Positive controls were triton X-100 (1%, v/v) and melittin (60 mg/L) as lytic peptide, whereas PBS (12%, v/v) served as negative control. After an incubation period of 24 h, supernatant (25 μL) was mixed with lactate dehydrogenase (LDH) substrate (175 μL; 0.57 mmol/L sodium pyruvate, 0.24 mmol/L NADH disodium salt, 32 mmol/L potassium dihydrogen phosphate, 66 mmol/L dipotassium phosphate) in 96-well plates (PS, sterile, flat bottom). Absorbance was recorded at 340 nm every 3 min for 30 min on the Paradigm microplate reader. Due to the total release of LDH upon triton X-100 treatment, the control contained high LDH concentrations resulting in a fast substrate turnover that was only linear for the first 6 min.
(§3) The MTT cell viability assay relied on the same cell culture. Remaining medium was replaced by a mixture of fresh colorless medium (100 μL) and MTT (10 μL; 5 g/L in PBS) and incubated for 4 h (37°C, 5% CO2). A solution of sodium dodecyl sulfate (100 μL; 10%, w/v) dissolved in hydrochloric acid (10 mmol/L) was added, incubated (16 h), and the absorbance recorded at 590 nm relative to the reference at 650 nm (Paradigm microplate reader). The relative cell viability was calculated by [(ODPeptide − ODTriton)/(ODPBS − ODTriton)] × 100% and half-maximal inhibitory concentrations (IC50) with an Excel-template from cell biology protocols (www.sciencegateway.org/ protocols/cellbio/drug/hcic50.htm). For statistical analysis an unpaired t-test was applied using GraphPad Prism 5.0.

[5] = tested on: HEK293 cells; assay: in vitro; assay type: cell-based, human; conditions: 24 h
Procedure: as §2, §3

[6] = tested on: HeLa cells; assay: in vitro; assay type: cell-based; conditions: 24 h
Procedure: as §2, §3

[7] = in vitro; conditions: mouse, mouse serum, Half-life time mouse serum, 37°C
Procedure: Peptide solutions (1 g/L) were added to mouse serum to obtain final concentrations of 70 mg/L peptide and incubated under constant shaking at 37°C. After 0, 1, 2, 3, and 6 h aliquots (95 μL) were precipitated with aqueous TCA (25 μL, 15% w/v), incubated for 10 min on ice, and centrifuged (5 min, 12,000 × g, Eppendorf mini spin centrifuge). An aliquot of the supernatant (95 μL) was neutralized with sodium hydroxide (8 μL, 1 mol/L) and diluted with aqueous acetonitrile solution (3% acetonitrile, 0.1% TFA; 200 μL). Peptides were quantified by the peak areas obtained by analytical RP-HPLC on a Jupiter C18-column (ID: 2 mm) using a linear aqueous acetonitrile gradient with 0.1% (v/v) TFA (absorbance recorded at 214 nm). Peak areas of all time points were normalized to the initial peak area obtained after “0 min incubation” (= 100%). Experiments were carried out as triplicates in parallel and half-life times were calculated using GraphPad Prism 5.0.

[8] = target: T1, P. aeruginosa elastase (Pseudomonas aeruginosa, UniProt P14756); assay: Elastase assay (proteolytic stability); assay type: in vitro ADME; conditions: Pseudomonas aeruginosa; 0.5 g/L peptide, elastase 12 units/mL, Tris-HCl pH 8.3, 37°C; read-out: Half-life time with Pseudomonas elastase
T1 construct: purchased Merck (Darmstadt, Germany)
Procedure: A stock solution of P. aeruginosa elastase (0.26 U/μL) was prepared in Tris-HCl (5 mmol/L, pH 8.3) and stored at −80°C. Peptides (0.5 g/L in 5 mmol/L Tris-HCl, pH 8.3) were incubated with elastase (0.012 U/μL) at 37°C under constant shaking (450 rpm) for 0, 0.5, 2, 4, and 6 h. Aliquots (10.5 μL) were precipitated with a mixture of acetonitrile and ethanol (1:1 v/v) containing 0.1% TFA (21 μL), centrifuged, the supernatant transferred into a new tube, and dried in vacuum. Samples were dissolved in aqueous acetonitrile (3% v/v) containing TFA (0.1% v/v) and analyzed by RP-HPLC using the conditions described above.

[9] = tested on: P. aeruginosa elastase; assay: P. aeruginosa elastase (0.012 U/μL) in Tris-HCl (5 mmol/L, pH 8.3); conditions: 37°C, up to 6 h

T1 sequence (P14756 198-498): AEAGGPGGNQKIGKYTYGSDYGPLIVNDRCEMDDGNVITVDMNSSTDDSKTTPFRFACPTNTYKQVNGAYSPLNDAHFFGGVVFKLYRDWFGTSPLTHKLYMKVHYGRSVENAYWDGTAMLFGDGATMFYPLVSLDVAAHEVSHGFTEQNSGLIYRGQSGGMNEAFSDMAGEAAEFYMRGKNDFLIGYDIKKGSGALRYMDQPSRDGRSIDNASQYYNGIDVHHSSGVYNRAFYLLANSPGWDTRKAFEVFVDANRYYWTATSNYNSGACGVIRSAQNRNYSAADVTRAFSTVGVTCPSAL

In the case of `CC[C@H](C)[C@H](NC(=O)[C@H](CCCN)N=C(N(C)C)N(C)C)C(=O)N[C@@H](CCCN)C(=O)N[C@@H](CCCNC(=N)N)C(=O)N1CCC[C@H]1C(=O)N[C@H](C(=O)N[C@@H](Cc1ccc(O)cc1)C(=O)N[C@@H](CCCN)C(=O)N1CCC[C@H]1C(=O)N[C@@H](CCCNC(=N)N)C(=O)N1CCC[C@H]1C(=O)N[C@@H](CCCNC(=N)N)C(=O)N1CCC[C@H]1C(=O)N1CCC[C@H]1C(=O)N[C@@H](Cc1c[nH]cn1)C(=O)N1CCC[C@H]1C(=O)N[C@@H](CCCNC(=N)N)C(=O)N[C@@H](CC(C)C)C(=O)O)C(C)C` [Api755, gu-OIORPVYOPRPRPPHPRL-OH, reference compound] ({Orn(α-tetramethylguanidino)}-I[Orn]RPVY[Orn]PRPRPPHPRL-OH), the “MIC E. coli ATCC 25922” value [1] is listed as 8 µg/mL (≈ 3.49 µM), the “MIC K. pneumoniae DSM 681” value [2] is listed as 8 µg/mL (≈ 3.49 µM) and the “times more active than Api137 against P. aeruginosa” value [3] is listed as 16.

For `CC(C)C[C@H](NC(=O)[C@H](CCCNC(=N)N)NC(=O)[C@@H]1CCCN1C(=O)[C@H](Cc1c[nH]cn1)NC(=O)[C@@H]1CCCN1C(=O)[C@@H]1CCCN1C(=O)[C@H](CCCNC(=N)N)NC(=O)[C@@H]1CCCN1C(=O)[C@H](CCCNC(=N)N)NC(=O)[C@@H]1CCCN1C(=O)[C@H](CCCN)NC(=O)[C@H](Cc1ccc(O)cc1)NC(=O)[C@@H](NC(=O)[C@@H]1CCCN1C(=O)[C@H](CCCNC(=N)N)NC(=O)[C@H](CCCN)NC(=O)[C@H](Cc1c[nH]c2ccccc12)NC(=O)[C@H](CCCN)N=C(N(C)C)N(C)C)C(C)C)C(=O)O` [Api760, gu-OWORPVYOPRPRPPHPRL-OH, reference compound] ({Orn(α-tetramethylguanidino)}-W[Orn]RPVY[Orn]PRPRPPHPRL-OH), the “MIC E. coli ATCC 25922” value [1] is listed as 8 µg/mL (≈ 3.38 µM), the “MIC K. pneumoniae DSM 681” value [2] is listed as 8 µg/mL (≈ 3.38 µM) and the “times more active than Api137 against P. aeruginosa” value [3] is listed as 16.

In the case of `CC(C)C[C@H](NC(=O)[C@H](CCCNC(=N)N)NC(=O)[C@@H]1CCCN1C(=O)[C@H](Cc1c[nH]cn1)NC(=O)[C@@H]1CCCN1C(=O)[C@@H]1CCCN1C(=O)[C@H](CCCNC(=N)N)NC(=O)[C@@H]1CCCN1C(=O)[C@H](CCCNC(=N)N)NC(=O)[C@@H]1CCCN1C(=O)[C@H](CCCN)NC(=O)[C@H](Cc1ccc(O)cc1)NC(=O)[C@@H](NC(=O)[C@@H]1CCCN1C(=O)[C@H](CCCNC(=N)N)NC(=O)[C@H](CCCN)NC(=O)[C@H](Cc1c[nH]c2ccccc12)NC(=O)[C@H](CCCN)NC(=O)[C@H](Cc1c[nH]c2ccccc12)NC(=O)[C@H](CCCN)N=C(N(C)C)N(C)C)C(C)C)C(=O)O` [Api793, guO(WO)2RPVYOPRPRPPHPRL] ({Orn(α-tetramethylguanidino)}-W[Orn]W[Orn]RPVY[Orn]PRPRPPHPRL-OH), the “MIC E. coli ATCC 25922” value [1] is reported as 8 µg/mL (≈ 3 µM), the “MIC K. pneumoniae DSM 681” value [2] is reported as 16 µg/mL (≈ 6 µM) and the “IC50 on cell viability” value [4] is reported as over 600 µg/mL. For the same compound, the “IC50 on cell viability” value [5] was 640 ± 50 µg/mL (≈ 240 µM), the “IC50 on cell viability” value [6] was 640 ± 150 µg/mL (≈ 240 µM) and the half-life at 70 mg/L [7] was 4.1 h.

With `CC[C@H](C)[C@H](NC(=O)[C@H](CCCCN)NC(=O)[C@H](CCC(=O)O)NC(=O)[C@H](CCCCN)NC(=O)[C@H](CO)NC(=O)[C@H](CCCCN)NC(=O)[C@H](CCCNC(=N)N)NC(=O)[C@H](Cc1ccccc1)NC(=O)[C@H](Cc1ccccc1)NC(=O)[C@H](CC(=O)O)NC(=O)CNC(=O)[C@H](CC(C)C)NC(=O)[C@@H](N)CC(C)C)C(=O)NCC(=O)N[C@@H](CCCCN)C(=O)N[C@@H](CCC(=O)O)C(=O)N[C@@H](Cc1ccccc1)C(=O)N[C@@H](CCCCN)C(=O)N[C@@H](CCCNC(=N)N)C(=O)N[C@H](C(=O)N[C@H](C(=O)N[C@@H](CCC(N)=O)C(=O)N[C@@H](CCCNC(=N)N)C(=O)N[C@H](C(=O)N[C@@H](CCCCN)C(=O)N[C@@H](CC(=O)O)C(=O)N[C@@H](Cc1ccccc1)C(=O)N[C@@H](CC(C)C)C(=O)N[C@@H](CCCNC(=N)N)C(=O)N[C@@H](CC(N)=O)C(=O)N[C@@H](CC(C)C)C(=O)N[C@H](C(=O)N1CCC[C@H]1C(=O)N[C@@H](CCCNC(=N)N)C(=O)N[C@H](C(=O)N[C@@H](CCC(=O)O)C(=O)N[C@@H](CO)C(=O)O)[C@@H](C)O)C(C)C)[C@@H](C)CC)C(C)C)[C@@H](C)CC` [LL-37, reference compound] the half-life at 0.5 g/L [8] was 3 min.

For gu-O(IO)2RPVYOPRPRPPHPRL-OH, the not cleaved [9] was 92 ± 4% detected after 30 min and for all later time points (6 h).

With gu-ONNRPVYIPRPRPPHPRL-OH the not cleaved [9] was “fully recovered after an incubation period of 6 h”.
